Experiments:
[1] = test system: Plasmodium falciparum; assay: Antimalarial activity against chloroquine resistant Plasmodium falciparum FcB1/Colombia assessed as inhibition of parasite growth incubated for 24 hrs by liquid scintillation spectrometer analysis; format: functional, organism-based
[2] = test system: Plasmodium falciparum; assay: Antiplasmodial activity against Plasmodium falciparum K1 infected in human Erythrocyte measured after 72 hrs by SYBR green fluorescence dye based microplate reader analysis; format: functional, organism-based
[3] = test system: Plasmodium falciparum; assay: Antiplasmodial activity against Plasmodium falciparum Dd2 infected in human Erythrocyte measured after 72 hrs by SYBR green fluorescence dye based microplate reader analysis; format: functional, organism-based
[4] = test system: Plasmodium falciparum; assay: Antiplasmodial activity against chloroquine-sensitive Plasmodium falciparum 3D7 infected in human erythrocyte incubated for 72 hrs by SYBR green I staining based fluorescence assay; format: functional, organism-based; conditions: 3D7, Erythrocyte
[5] = test system: Plasmodium falciparum; assay: Antimalarial activity against chloroquine-sensitive Plasmodium falciparum NF54 assessed as reduction in cell growth; format: functional, organism-based
[6] = test system: Plasmodium falciparum; assay: Antimalarial activity against chloroquine-resistant Plasmodium falciparum K1 assessed as reduction in cell growth; format: functional, organism-based
[7] = test system: Plasmodium falciparum; assay: Antimalarial activity against Plasmodium falciparum 3D7 assessed as inhibition of parasite growth; format: functional, organism-based
[8] = test system: Plasmodium falciparum; assay: Antimalarial activity against CQ-resistant Plasmodium falciparum RKL9; format: functional, organism-based
[9] = test system: Plasmodium berghei; assay: Antimalarial activity against liver stage Plasmodium berghei; format: functional, organism-based
[10] = test system: HepG2; assay: Cytotoxicity against human HepG2 cells assessed as cell growth inhibition measured after 72 hrs by MTT assay; format: functional
[11] = test system: Plasmodium falciparum; assay: Antimalarial activity against drug sensitive Plasmodium falciparum NF54 assessed as inhibition of parasite growth; format: functional, organism-based
[12] = test system: Plasmodium falciparum; assay: Antimalarial activity against Plasmodium falciparum K1 assessed as inhibition of parasitic growth; format: functional, organism-based
[13] = test system: Plasmodium falciparum; assay: Antiplasmodial activity against Plasmodium falciparum 3D7 infected in human erythrocytes assessed as growth inhibition after 72 hrs by SYBR Gren-I fluorescent dye based method; format: functional, organism-based; conditions: 3D7, 72 h

CCOP(=O)(CCCN(O)C(=O)CCC(=O)N1CCN(c2ccnc3cc(Cl)ccc23)CC1)OCC
IC50 [1]: 2700 nM

C#CCCCN(CCNc1ccnc2cc(Cl)ccc12)C(=O)CCC(=O)O[C@@H]1O[C@@H]2O[C@@]3(C)CC[C@H]4[C@H](C)CC[C@@H]([C@H]1C)[C@@]24OO3
EC50 [2]: 1.3 nM
EC50 [3]: 1.6 nM
EC50 [4]: 3.5 nM

C[C@H]1[C@H](OC(=O)CCC(=O)OCCNc2ccnc3cc(Cl)ccc23)O[C@@H]2O[C@@]3(C)CC[C@H]4[C@H](C)CC[C@@H]1[C@@]24OO3
EC50 [2]: 1.7 nM
EC50 [3]: 2.3 nM
EC50 [4]: 4.5 nM

C#Cc1ccc(-c2cn(CCNc3ccnc4cc(Cl)ccc34)nn2)c(F)c1
IC50 [5]: 190 nM
IC50 [6]: 210 nM

O=[N+]([O-])c1ccc(/C=N/Nc2ccnc3cc(Cl)ccc23)cc1
IC50 [7]: 9 nM
IC50 [8]: 9 nM

O=C(O)c1cn(C2CC2)c2cc(N3CCNCC3)c(F)cc2c1=O [CIPROFLOXACIN]
IC50 [9]: 60 nM

C#Cc1ccc(-c2cn(CCNc3ccnc4cc(Cl)ccc34)nn2)cc1
IC50 [6]: 180 nM

COc1cc(/C=N/Nc2ccnc3cc(Cl)ccc23)ccc1O
IC50 [7]: 9 nM
IC50 [8]: 9 nM

CCOP(=O)(CCCN(O)C(=O)CCC(=O)NCCNc1ccnc2cc(Cl)ccc12)OCC
IC50 [1]: 4200 nM

CC1(C)[C@@H]2CC=C(CC(=O)Nc3ccnc4cc(Cl)ccc34)[C@H]1C2
CC50 [10]: 14300 nM
EC50 [11]: 21400 nM
EC50 [12]: 7840 nM
EC50 [13]: 17100 nM

CC1(C)[C@@H]2CC=C(CC(=O)Nc3ccnc4ccccc34)[C@H]1C2
CC50 [10]: 3890 nM
EC50 [11]: 23400 nM
EC50 [12]: 13900 nM
EC50 [13]: 26400 nM

Source: ChEMBL document CHEMBL5344418, “Recent developments in antimalarial activities of 4-aminoquinoline derivatives” (Eur J Med Chem, 2023)
